Experimental data published in patent publication US20230117034A1, “PYRAZOLOTRIAZINES” (Bayer Aktiengesellschaft, priority 2019, published 2023).

How the values were obtained:
[1] = system: BRCA1 mRNA expression in MDA-MB-231 cells; experiment: qRT-PCR assay: BRCA1 mRNA expression in MDA-MB-231; type: cell-based, human; conditions: Homo sapiens, MDA-MB-231, Inhibition of BRCA1 mRNA expression in MDA-MB-231 cells; median; read-out: RTqPCR-MDA-MB-231, IC50, BRCA1 (median)
Method in brief: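 GAPDH-normalised RT-qPCR measures the transcript after 24 h continuous compound treatment of cells seeded at 200,000/well one day earlier.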

[2] = target: T1, CDK12 protein level in CAL-120 breast cancer cells (Homo sapiens, UniProt Q9NYV4); experiment: CDK12 protein level: Protein Simple (CDK12, CAL-120); type: cell-based; conditions: CAL-120 cells, 18 h with compound, CDK12/HSP90 peak area ratio vs vehicle, median, read-out: CDK12 protein level in CAL-120 breast ca cells, DC50-[mol/l] (median)
T1 construct: endogenous in cells; host or cells: CAL-120 human breast cancer cells (DSMZ ACC 459)
T1 sequence (Q9NYV4 whole entry): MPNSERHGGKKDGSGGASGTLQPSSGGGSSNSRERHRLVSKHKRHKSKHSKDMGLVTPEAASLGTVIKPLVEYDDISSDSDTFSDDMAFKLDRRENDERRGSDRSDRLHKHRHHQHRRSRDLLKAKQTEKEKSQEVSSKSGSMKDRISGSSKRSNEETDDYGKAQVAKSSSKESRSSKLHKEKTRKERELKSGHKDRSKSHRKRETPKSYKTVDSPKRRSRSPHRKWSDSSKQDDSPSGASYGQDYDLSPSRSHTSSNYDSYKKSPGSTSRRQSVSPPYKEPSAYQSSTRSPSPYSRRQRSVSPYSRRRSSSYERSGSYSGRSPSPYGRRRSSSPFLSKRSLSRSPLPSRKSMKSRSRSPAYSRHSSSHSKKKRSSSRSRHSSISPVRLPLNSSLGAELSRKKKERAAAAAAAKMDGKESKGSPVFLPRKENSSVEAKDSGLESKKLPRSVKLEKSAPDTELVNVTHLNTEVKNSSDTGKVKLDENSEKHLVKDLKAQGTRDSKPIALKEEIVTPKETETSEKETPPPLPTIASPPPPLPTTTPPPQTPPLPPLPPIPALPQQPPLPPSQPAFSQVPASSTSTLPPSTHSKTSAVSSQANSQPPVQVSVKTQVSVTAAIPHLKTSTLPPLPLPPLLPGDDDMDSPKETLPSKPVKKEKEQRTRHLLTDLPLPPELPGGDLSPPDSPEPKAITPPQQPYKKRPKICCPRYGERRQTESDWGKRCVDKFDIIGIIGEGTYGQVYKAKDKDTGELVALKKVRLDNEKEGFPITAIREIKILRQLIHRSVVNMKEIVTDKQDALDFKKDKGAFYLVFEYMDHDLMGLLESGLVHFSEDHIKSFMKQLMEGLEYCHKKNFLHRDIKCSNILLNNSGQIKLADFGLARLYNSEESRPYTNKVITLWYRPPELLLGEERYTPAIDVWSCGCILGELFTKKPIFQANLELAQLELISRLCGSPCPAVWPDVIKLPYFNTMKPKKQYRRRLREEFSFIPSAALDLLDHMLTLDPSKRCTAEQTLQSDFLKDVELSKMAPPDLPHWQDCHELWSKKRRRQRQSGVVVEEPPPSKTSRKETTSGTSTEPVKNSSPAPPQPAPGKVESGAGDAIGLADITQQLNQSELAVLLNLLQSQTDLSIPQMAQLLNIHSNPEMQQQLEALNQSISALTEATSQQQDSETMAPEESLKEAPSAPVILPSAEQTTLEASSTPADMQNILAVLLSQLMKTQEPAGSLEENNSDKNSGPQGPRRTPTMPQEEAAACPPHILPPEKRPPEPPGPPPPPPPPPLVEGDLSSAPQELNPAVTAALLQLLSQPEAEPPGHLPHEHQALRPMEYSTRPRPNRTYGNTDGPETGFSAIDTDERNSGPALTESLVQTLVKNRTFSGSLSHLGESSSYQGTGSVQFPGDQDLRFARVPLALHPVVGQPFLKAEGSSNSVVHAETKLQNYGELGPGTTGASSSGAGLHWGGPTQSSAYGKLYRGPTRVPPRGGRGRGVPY
T1 sequence (O75909 whole entry partner): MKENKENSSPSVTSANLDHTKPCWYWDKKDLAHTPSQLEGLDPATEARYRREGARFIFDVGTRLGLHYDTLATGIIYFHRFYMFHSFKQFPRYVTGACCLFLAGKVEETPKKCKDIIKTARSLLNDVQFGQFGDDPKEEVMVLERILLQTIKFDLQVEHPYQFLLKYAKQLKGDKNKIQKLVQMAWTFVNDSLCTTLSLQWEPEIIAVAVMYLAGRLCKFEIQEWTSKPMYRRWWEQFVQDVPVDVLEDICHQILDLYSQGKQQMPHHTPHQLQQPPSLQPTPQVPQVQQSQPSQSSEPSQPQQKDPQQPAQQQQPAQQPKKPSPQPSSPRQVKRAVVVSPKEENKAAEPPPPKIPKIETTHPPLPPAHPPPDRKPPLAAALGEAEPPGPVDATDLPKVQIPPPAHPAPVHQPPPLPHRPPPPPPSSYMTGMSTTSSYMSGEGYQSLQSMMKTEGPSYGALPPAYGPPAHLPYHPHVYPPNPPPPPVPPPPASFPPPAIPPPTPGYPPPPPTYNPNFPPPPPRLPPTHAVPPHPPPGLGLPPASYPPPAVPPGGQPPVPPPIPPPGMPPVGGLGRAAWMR
Description: CAL-120 human breast cancer cells (DSMZ ACC 459) were seeded at 300,000 cells/well in 6-well plates containing 2 mL of growth medium (DMEM, 10% FCS, glutamine) and incubated for 24 h at 37° C. in an humidified incubator. Test compounds were added at various concentrations, control wells received solvent (DMSO), and the plates were incubated for another 18 h at 37° C. Cells were washed 2 times with PBS and lysed in 75 microL lysis buffer (MSD-Puffer (MSD, #R60TX-2), +1% 505S+PhosSTOP (Roche #04906837001)+complete mini (Roche #04693159001)) by scraping. The lysates were pushed 2 times through Qiashedders followed by centrifugation at 14,000 rpm for 30-50 sec. The supernatant was stored at −20° C. Proteins were separated by applying 0.4 microgramms of protein lysate to Protein Simple 66-440 kDa (Protein Simple #SM-S002) size assay columns on a PEGGY SUE or SALLY SUE equipment according to the supplier's manual. CDK12 and HSP90 (loading control) were detected using anti-human CDK12 antibody (Cell Signaling Technologies (CST) #11793) at 1:25 dilution and anti-human HSP90 antibody (CST #4877) at 1:5,000 dilution. CDK12 and HSP90 peak areas were determined using Protein Simple Compass software. Ratio of CDK12/HSP90 peak areas were calculated for each sample, and […] values (degrading concentration to achieve 50% reduction relative to vehicle treated control) were determined by means of a 4 parameter fit.

[3] = system: MDA-MB-231, human breast cancer cells; experiment: Proliferation assay MDA-MB-231 (crystal violet, 4 days); type: cell-based; conditions: Homo sapiens, MDA-MB-231, 96 h, MDA-MB-231 cells, median, read-out: Prolif-MDA MB-231, IC50-[mol/l] (median)
Method in brief: (§1)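 Following a 24 h attachment in 10% fetal calf serum medium, cells receive test substance over 0.01-10 µmol/L for 4 days. Dye retained by fixed cells is eluted and read at 595 nm; cell number change is referenced to day-0 and untreated wells.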

[4] = target: T2, CYCLIN K (nuclear staining in CAL-120 cells) (Homo sapiens, UniProt O75909); experiment: CYCLIN K nuclear protein level: immunofluorescence high content analysis (CAL-120); type: cell-based; conditions: 24 h, 50% reduction of nuclear CCNK staining intensity, median, read-out: CYCLIN K degradation IF, DC50-[mol/l] (median)
T2 construct: endogenous in cells; host or cells: CAL-120 human breast cancer cells (DSMZ ACC 459)
T2 sequence (O75909 whole entry): as the sequence (O75909 whole entry partner) above
T2 sequence (Q9NYV4 whole entry partner): as the sequence (Q9NYV4 whole entry) above
Method in brief: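 CAL-120 breast cancer cells treated in dose-response for 24 h at 37 °C, PFA-fixed and immunostained for cyclin K with Hoechst counterstain. Confocal imaging quantified nuclear intensity; DC50 is the concentration giving 50% reduction of nuclear CCNK staining, normalized to DMSO and control.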

[5] = system: CAL-120, human breast adenocarcinoma cells; experiment: Proliferation assay CAL-120 (crystal violet, 4 days); type: cell-based; conditions: Homo sapiens, CAL-120, 96 h, CAL-120 cells, median, read-out: Prolif-CAL-120, IC50-[mol/l] (median)
Method in brief: as §1

| Structure (SMILES) | IC50 [1] [nM] | DC50 [2] [nM] | IC50 [3] [nM] | DC50 [4] [nM] | IC50 [5] [nM] |
| --- | --- | --- | --- | --- | --- |
| NCCc1cccc2[nH]c(CNc3nc(N4CCOCC4)nc4c(Br)cnn34)nc12 [Example 112, N-{[7-(2-aminoethyl)-1H-benzimidazol-2-yl]methyl}-8-bromo-2-(morpholin-4-yl)pyrazolo[1,5-a][1,3,5]triazin-4-amine] | 23.7 | 58.8 | 186 | – | – |
| Brc1cnn2c(NCc3nc4ccccc4[nH]3)nc(N3CCOCC3)nc12 [Example 4, N-[(1H-benzimidazol-2-yl)methyl]-8-bromo-2-(morpholin-4-yl)pyrazolo[1,5-a][1,3,5]triazin-4-amine] | 7.13 | 0.476 | 25.3 | 2.46 | 12 |
| CN1CCN(c2nc(NCc3nc4cc(F)ccc4[nH]3)n3ncc(C4CC4)c3n2)CC1 [Example 164, 8-cyclopropyl-N-[(5-fluoro-1H-benzimidazol-2-yl)methyl]-2-(4-methylpiperazin-1-yl)pyrazolo[1,5-a][1,3,5]triazin-4-amine] | 2.55 | 1.08 | 25.7 | 1.12 | 4.13 |
